The results in this text go back to ChEMBL document CHEMBL3734705, “Synthesis and in vitro cytotoxicity of novel C-12 substituted-14-deoxy-andrographolide derivatives as potent anti-cancer agents” (2015).

Common to all, as to type: functional
The subject of assay [1] is SK-MEL-2. Description: Cytotoxicity against human SK-MEL-2 cells assessed as growth level at 10 uM after 48 hrs by SRB assay. In general terms: In SRB staining, fixed cells bind dye roughly in proportion to their protein.
Assay [2] in a line: Cytotoxicity against human COLO205 cells after 48 hrs by SRB assay. Conditions: COLO 205, 48 h.
Assay [3] is described as follows: Cytotoxicity against human SF268 cells after 48 hrs by SRB assay. To be noted: SF-268, 48 h.
Assay [4] is described as follows: Cytotoxicity against human SW620 cells after 48 hrs by SRB assay. Conditions: SW-620, 48 h.
Assay [5] is described as follows: Cytotoxicity against human UO31 cells after 48 hrs by SRB assay. To be noted: UO-31, 48 h.
A short description of assay [6]: Cytotoxicity against human SKOV3 cells after 48 hrs by SRB assay. Conditions: SK-OV-3, 48 h; for CC50: read-out: LC50 (the source's name).
Assay [7] concerns SK-OV-3. Description: Cytotoxicity against human SKOV3 cells assessed as growth inhibition at 10 uM after 48 hrs by SRB assay.
Assay [8] in a line: Cytotoxicity against human RPMI8226 cells after 48 hrs by SRB assay. Conditions: RPMI-8226, 48 h.
A short description of assay [9]: Cytotoxicity against human TK10 cells after 48 hrs by SRB assay. To be noted: TK-10, 48 h.
Assay [10] in a line: Cytotoxicity against human SF539 cells after 48 hrs by SRB assay. To be noted: SF-539, 48 h.
Assay [11] relates to SK-MEL-28. Description: Cytotoxicity against human SK-MEL-28 cells after 48 hrs by SRB assay. Conditions: SK-MEL-28, 48 h.
In assay [12] the test system is Malme-3M. Description: Cytotoxicity against human MALME-3M cells after 48 hrs by SRB assay.
Assay [13] is described as follows: Cytotoxicity against human BT549 cells after 48 hrs by SRB assay. Conditions: BT-549, 48 h; for CC50: read-out: LC50 (the source's name).
Assay [14] can be described thus: Cytotoxicity against human Caki1 cells after 48 hrs by SRB assay. Conditions: CAKI-1, 48 h.
Assay [15] is described as follows: Cytotoxicity against human OVCAR8 cells after 48 hrs by SRB assay. Conditions: OVCAR-8, 48 h.
The subject of assay [16] is IGROV-1. Description: Cytotoxicity against human IGROV1 cells assessed as growth inhibition at 10 uM after 48 hrs by SRB assay.
Assay [17] concerns Hs-578T. Description: Cytotoxicity against human Hs578T cells assessed as growth inhibition at 10 uM after 48 hrs by SRB assay.
Assay [18] deals with SF-295. Description: Cytotoxicity against human SF295 cells assessed as growth inhibition at 10 uM after 48 hrs by SRB assay.
Assay [19] concerns HOP-92. Description: Cytotoxicity against human HOP92 cells assessed as growth inhibition at 10 uM after 48 hrs by SRB assay.
The subject of assay [20] is HCC 2998. Description: Cytotoxicity against human HCC2998 cells assessed as growth inhibition at 10 uM after 48 hrs by SRB assay.
Assay [21] concerns HL-60(TB). Description: Cytotoxicity against human HL-60(TB) cells assessed as growth inhibition at 10 uM after 48 hrs by SRB assay.
The test system of assay [22] is RXF 393. Description: Cytotoxicity against human RXF393 cells assessed as growth inhibition at 10 uM after 48 hrs by SRB assay.

Activity calls are given as the source filed them. The rule behind the calls is not given here. Where only a bound is given, the exact number is not on record here.

One may read the GI50 as the concentration that inhibits growth by half. Usually LC50 stands for the concentration that kills 50% of the test population. Broadly, the TGI is the concentration giving total growth inhibition. A low value points to more potent growth arrest.

With `C=C1CC[C@@H]2[C@](C)(COC(C)=O)[C@H](OC(C)=O)CC[C@@]2(C)[C@@H]1CC(NC1CCCC1)C1=CCOC1=O` (stereo partly drawn), in assay [1], the Activity turned out to be 85.11%.
With `C=C1CC[C@@H]2[C@](C)(COC(C)=O)[C@H](OC(C)=O)CC[C@@]2(C)[C@@H]1C/C=C1/C(=O)OC[C@H]1OC(C)=O`, the concentration for 50% growth inhibition (GI50) was 3.37 µM in assay [2]; 8.56 µM in [3]; 2.29 µM in [4]; 1.91 µM in assay [5]; 19.1 µM in assay [6]; 2.07 µM in assay [8]. Besides, the 50% growth inhibitory concentration (GI50) in assay [9] is 3.81 µM; in assay [10], 1.7 µM; in [11], 1.75 µM; in assay [12], 2.97 µM; in assay [13] it was 2.29 µM; in assay [14] it was 6.67 µM. Moreover, in [15], the concentration for 50% growth inhibition (GI50) is 3.38 µM. Moreover, the 50% lethal concentration (LC50) in assay [2] was over 100 µM; in assay [3], 55.5 µM; in assay [4], 41.1 µM; in [8] it was over 100 µM; in assay [9], 38.2 µM; in assay [10], 6.08 µM. Besides, the results for the median lethal concentration (LC50) in assay [12], in [14] and in [15] were 29.9 µM, 44.3 µM and over 100 µM, respectively. Further, the TGI in assay [2] amounted to 11.4 µM; in [3], 22.7 µM; in assay [4], 5.85 µM; in [5] it was 3.89 µM; in assay [6], 36.3 µM; in assay [8], 7.68 µM. Besides, the TGI is 13.3 µM in assay [9]; 3.22 µM in assay [10]; 3.38 µM in assay [11]; 7.95 µM in assay [12]; 5.63 µM in [13]; 19.6 µM in [14]. Besides, the concentration for total growth inhibition (TGI) in [15] stood at 22 µM. Moreover, the LC50 (concentration killing 50% of cells) in assay [5] is 7.92 µM. In addition, the CC50 in assay [6] was found to be 68.8 µM; in [13], 18.8 µM. Moreover, the “growth inhibition (GI)” value in assay [7], in assay [16] and in assay [17] was “inactive” in each case. In assay [11], this molecule returned an LC50 (lethal concentration 50%) of 6.51 µM.
Consider `C=C1CC[C@@H]2[C@](C)(COC(C)=O)[C@H](OC(C)=O)CC[C@@]2(C)[C@@H]1CC(NCc1cccc(Cl)c1)C1=CCOC1=O` (mixture of isomers), for which the Activity in assay [1] turned out to be 68.04%.
As for `C=C1CC[C@@H]2[C@](C)(COC(C)=O)[C@H](OC(C)=O)CC[C@@]2(C)[C@@H]1CC(Nc1ccc(S(=O)(=O)NC(C)=O)cc1)C1=CCOC1=O` (mixture of isomers), the GI50 came out at 1.81 µM in assay [2]; 8.78 µM in assay [3]; 1.61 µM in assay [4]; 3.71 µM in [5]; 9.31 µM in assay [6]; 1.84 µM in assay [8]. In addition, the GI50 in assay [9] is 8.02 µM; in assay [10] it was 2.39 µM; in assay [11] it was 3.69 µM; in assay [13], 2.32 µM; in [14], 3.31 µM; in [15], 2.25 µM. The LC50 was 20 µM in [2]; 47.9 µM in assay [3]; 9.63 µM in [4]; over 75 µM in [8]; 35.6 µM in [9]; 26.9 µM in assay [10]. In addition, the LC50 is 29 µM in [14] and 38.6 µM in assay [15]. The TGI in assay [2] amounted to 4.82 µM; in assay [3] it was 20.5 µM; in assay [4], 3.58 µM; in assay [5], 13.2 µM; in assay [6], 18.7 µM; in assay [8] it was 6.53 µM. For the same molecule, the TGI in assay [9] was found to be 16.9 µM; in assay [10], 7.77 µM; in assay [11], 13.2 µM; in assay [13] it was 7.93 µM; in assay [14], 11.2 µM; in assay [15] it was 8.42 µM. Also, the LC50 (concentration killing 50% of cells) in assay [5] is 31.7 µM. Besides, the CC50 in assay [6] turned out to be 37.4 µM; in assay [13], 25.1 µM. Moreover, the LC50 (lethal concentration 50%) in assay [11] was 34.2 µM. In assay [1], the Activity is recorded as -7.41%.
As for `C=C1CC[C@@H]2[C@](C)(CO)[C@H](O)CC[C@@]2(C)[C@@H]1C/C=C1/C(=O)OC[C@H]1O` [ANDROGRAPHOLIDE], the “growth inhibition (GI)” value in [7], in [18], in [19], in assay [20], in [21] and in assay [22] was “inactive” in each case. Besides, the “growth inhibition (GI)” value in assay [16] and in assay [17] was “inactive” throughout.
For `C=C1CC[C@@H]2[C@](C)(COC(C)=O)[C@H](OC(C)=O)CC[C@@]2(C)[C@@H]1CC(Sc1ccccc1)C1=CCOC1=O` (mixture of isomers), the concentration for 50% growth inhibition (GI50) in [2] stood at 1.49 µM; in assay [3] it was 1.71 µM; in assay [4], 0.71 µM; in [5], 1.2 µM; in [6], 4.44 µM; in assay [8], 0.34 µM. Further, the GI50 in assay [9] amounted to 2.83 µM; in [11], 1.62 µM; in assay [12], 1.74 µM; in assay [13], 1.59 µM; in assay [14] it was 2.77 µM; in [15] it was 1.46 µM. The median lethal concentration (LC50) was over 100 µM in [2]; 7.39 µM in assay [3]; over 100 µM in assay [4]; over 100 µM in assay [8]; 13.4 µM in [9]; 7.59 µM in assay [12]. The LC50 was over 100 µM in [14] and 70 µM in [15]. Besides, the TGI turned out to be 3.98 µM in assay [2]; 3.55 µM in [3]; 3.64 µM in assay [4]; 2.53 µM in assay [5]; 16.8 µM in assay [6]; 2.73 µM in assay [8]. In addition, the TGI in assay [9] is 5.54 µM; in assay [11], 3.29 µM; in [12], 3.63 µM; in [13], 3.99 µM; in [14], 11.5 µM; in [15] it was 4.7 µM. Further, the LC50 (concentration killing 50% of cells) in assay [5] was determined as 5.33 µM. The CC50 in [6] and in [13] was over 100 µM each time. Also, the LC50 (lethal concentration 50%) in assay [11] was determined as 6.68 µM. In addition, in assay [1], the Activity is -1.66%.
Turning to `C=C1CC[C@@H]2[C@](C)(COC(C)=O)[C@H](OC(C)=O)CC[C@@]2(C)[C@@H]1CC(NCCCC)C1=CCOC1=O` (mixture of isomers), in assay [22], the “growth inhibition (GI)” value is “inactive”.
Consider `C=C1CC[C@@H]2[C@](C)(COC(C)=O)[C@H](OC(C)=O)CC[C@@]2(C)[C@@H]1CC(NCc1ccc(F)cc1)C1=CCOC1=O` (mixture of isomers), for which, in assay [1], the Activity turned out to be 73.2%.
